# Laboratory results published in patent US20210330611A1, “THERAPY FOR NEUROLOGICAL DISEASES/DISORDERS” (priority 2020, published 2021).
# Where two headings read alike, the source gives them in different places.
# What was measured:
# [1] = system: fibrin-induced microglia activation; test: Image-based assay of fibrin-induced microglia activation (HTS and dose response); type: cell-based, rat; conditions: for inhibition at 10 µM: Rattus norvegicus, Microglia, read-out: Fibrin % inhibition
# [2] = system: LPS-induced microglia activation; test: Image-based assay of LPS-induced microglia activation (HTS and dose response); type: cell-based, rat; conditions: for inhibition at 10 µM: Rattus norvegicus, Microglia, read-out: LPS % inhibition
# [3] = system: fibrin- and LPS-induced microglia activation; test: cells; type: cell-based, rat
# primary rat microglia [4] = test: Cell toxicity (dead cells, size <150 μm2) in LPS assay; conditions: for IC50: read-out: Cell Toxicity IC50 (uM) [LPS assay]
# primary rat microglia [5] = test: Cell toxicity (dead cells, size <150 μm2) in coated fibrin (cFib) assay; conditions: for IC50: read-out: Cell Toxicity IC50 (uM) [cFib assay];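 for Fibrin % cell toxicity: share of dead cells sized under 150 µm2 at 10 µM in fibrin-stimulated microglia HTS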
# [6] = primary microglia HTS, fibrin stimulation, increased cell size (>800 μm^2) as marker of activation
# [7] = primary microglia HTS, LPS stimulation, increased cell size (>800 μm^2) as marker of activation
# [8] = quadrant by fibrin and LPS inhibition in HTS of 1907 compounds
# [9] = primary microglia HTS, LPS stimulation, decreased size (<150 μm^2) as marker of toxicity
# [10] = primary microglia HTS, fibrin stimulation, decreased size (<150 μm^2) as marker of toxicity
# [11] = 48 h, primary microglia HTS, LPS stimulation, increased cell size (>800 μm^2) as marker of activation
# [12] = primary microglia HTS, fibrin stimulation, activation = cell size >800 μm2
# [13] = 48 h, primary microglia HTS, LPS stimulation, activation = cell size >800 μm2
# [14] = primary microglia HTS, LPS stimulation, toxicity = cell size <150 μm2
# [15] = primary microglia HTS, fibrin stimulation, toxicity = cell size <150 μm2
# [16] = HTS of 1907 compounds, quadrant by fibrin and LPS inhibition
# [17] = primary HTS, 10 μM, fibrin-stimulated primary microglia
# [18] = primary HTS, 10 μM, LPS-stimulated primary microglia
# [19] = primary HTS, 10 μM, LPS assay, dead cells size <150 μm2
# [20] = primary HTS, 10 μM, fibrin assay, dead cells size <150 μm2
structure (smiles),measurement,setting,value
O=[N+]([O-])c1ccc([As](=O)(O)O)cc1 [Nitarsone],Fibrin % inhibition,[1]; [6],−3%
same,LPS % inhibition,[2]; [7],19%
same,Quadrant (FIG. 5b),[3]; [8],Q4
same,LPS % cell toxicity,primary rat microglia [4]; [9],0%
same,Fibrin % cell toxicity,primary rat microglia [5]; [10],1%
C[C@@H]1C[C@H]2[C@@H]3CCC4=CC(=O)C=C[C@]4(C)[C@@]3(F)[C@@H](O)C[C@]2(C)[C@H]1C(=O)CO [Desoxymetasone],Fibrin % inhibition,[1]; [6],108%
same,LPS % inhibition,[2]; [7],105%
same,Quadrant (FIG. 5b),[3]; [8],Q2
same,LPS % cell toxicity,primary rat microglia [4]; [9],3%
same,Fibrin % cell toxicity,primary rat microglia [5]; [10],3%
C[N+]1(C)CCCC(OC(=O)C(O)(c2ccccc2)c2ccccc2)C1 (stereo not shown) [Mepenzolate],inhibition at 10 µM,[1]; [6],45%
same,inhibition at 10 µM,[2]; [11],34%
same,Quadrant (FIG. 5b),[3]; [8],Q4
same,LPS % cell toxicity,primary rat microglia [4]; [9],1%
same,Fibrin % cell toxicity,primary rat microglia [5]; [10],1%
Nc1nc(O)c2ncn(COC(CO)CO)c2n1 [Ganciclovir],inhibition at 10 µM,[1]; [12],-2%
same,inhibition at 10 µM,[2]; [13],13%
same,Quadrant (FIG. 5b),[3]; [8],Q4
same,LPS % cell toxicity,primary rat microglia [4]; [14],0%
same,Fibrin % cell toxicity,primary rat microglia [5]; [15],0%
"CC(=O)[C@@]12O[C@](C)(c3ccccc3)O[C@@H]1C[C@H]1[C@@H]3CCC4=CC(=O)CC[C@]4(C)[C@H]3CC[C@@]12C [Algestone acetophenide, reference compound]",Fibrin Selectivity,[1],9
same,Fibrin Selectivity (LOG10),[1],0.95
same,IC50,"[1]; Table 1, dose response 0.001-20 μM, triplicates, primary rat microglia, 48 h, read-out: Fibrin IC50",1 µM
same,IC50,"[1]; Table 3, read-out: Fibrin IC50 (uM) (Suppl. Table 7)",1 µM
same,IC50,"[1]; dose response, fibrin-induced microglia activation, read-out: Fibrin IC50",1 µM
same,IC50,"[1]; fibrin-induced microglia activation, dose response, read-out: Fibrin IC50 (uM) (Suppl. Table 7)",1 µM
same,Fibrin % inhibition,[1]; [6],62%
same,IC50,"[2]; LPS-induced microglia activation, dose response, read-out: LPS IC50 (uM) (Suppl. Table 7)",9 µM
same,IC50,"[2]; Table 1, dose response 0.001-20 μM, triplicates, primary rat microglia, 48 h, read-out: LPS IC50",9 µM
same,IC50,"[2]; Table 3, read-out: LPS IC50 (uM) (Suppl. Table 7)",9 µM
same,IC50,"[2]; dose response, LPS-induced microglia activation, read-out: LPS IC50",9 µM
same,LPS % inhibition,[2]; [7],61%
same,Hit,[3]; HTS hit classification,HIT (Hits were defined as molecules that exhibited greater than 50% inhibition of either fibrin or LPS activation)
same,Quadrant (FIG. 5b),[3]; [16],Q2
same,Quadrant (FIG. 5b),"[3]; Table 1, screen at 10 μM",Q2
same,Cherry-picked Hit (Suppl. Table 7),[3]; Table 3,HIT (Hits were defined as molecules that exhibited greater than 50% inhibition of either fibrin or LPS activation)
same,Quadrant (FIG. 5b),"[3]; Table 3, screen at 10 μM",Q2
same,Cherry-picked Hit (Suppl. Table 7),[3]; hit classification in microglia HTS,HIT (Hits were defined as molecules that exhibited greater than 50% inhibition of either fibrin or LPS activation)
same,Quadrant (FIG. 5b),[3]; [8],Q2
same,LPS % cell toxicity,primary rat microglia [4]; [9],2%
same,IC50,primary rat microglia [4]; LPS assay,> 20 µM
same,IC50,primary rat microglia [4]; Table 3,> 20 µM
same,Fibrin % cell toxicity,primary rat microglia [5]; [10],1%
same,IC50,primary rat microglia [5]; Table 3,> 20 µM
same,IC50,primary rat microglia [5]; cFib assay,> 20 µM
Cc1ccc(C)c(OCCCC(C)(C)C(=O)O)c1 [Gemfibrozil],inhibition at 10 µM,[1]; [12],-47%
same,inhibition at 10 µM,[2]; [13],10%
same,Quadrant (FIG. 5b),[3]; [8],Q4
same,LPS % cell toxicity,primary rat microglia [4]; [14],0%
same,Fibrin % cell toxicity,primary rat microglia [5]; [15],0%
OC[C@H]1O[C@H](O[C@]2(CCl)O[C@H](CCl)[C@@H](O)[C@@H]2O)[C@H](O)[C@@H](O)[C@H]1Cl [Sucralose],inhibition at 10 µM,"[1]; primary microglia HTS, 10 μM, fibrin-stimulated, cell size >800 μm^2 as marker of activation",0%
same,inhibition at 10 µM,"[2]; primary microglia HTS, 10 μM, LPS-stimulated, cell size >800 μm^2 as marker of activation",16%
same,Quadrant (FIG. 5b),[3]; [16],Q4
same,LPS % cell toxicity,"primary rat microglia [4]; primary microglia HTS, 10 μM, LPS assay, cell size <150 μm^2 as marker of toxicity",0%
same,Fibrin % cell toxicity,"primary rat microglia [5]; primary microglia HTS, 10 μM, fibrin assay, cell size <150 μm^2 as marker of toxicity",1%
C[C@H](CCC(=O)O)[C@H]1CC[C@H]2[C@@H]3[C@H](O)C[C@@H]4C[C@H](O)CC[C@]4(C)[C@H]3CC[C@]12C [Chenodiol],inhibition at 10 µM,[1]; [17],-32%
same,inhibition at 10 µM,[2]; [18],4%
same,Quadrant (FIG. 5b),"[3]; primary HTS, 10 μM",Q4
same,LPS % cell toxicity,primary rat microglia [4]; [19],0%
same,Fibrin % cell toxicity,primary rat microglia [5]; [20],0%
S=C=Nc1ccc(N=C=S)cc1 [Bitoscanate],inhibition at 10 µM,[1]; [17],-9%
same,inhibition at 10 µM,[2]; [18],3%
same,Quadrant (FIG. 5b),"[3]; primary HTS, 10 μM",Q4
same,LPS % cell toxicity,primary rat microglia [4]; [19],1%
same,Fibrin % cell toxicity,primary rat microglia [5]; [20],1%
O=C1CN=C(c2ccccc2Cl)c2cc([N+](=O)[O-])ccc2N1 [Clonazepam],inhibition at 10 µM,[1]; [17],-12%
same,inhibition at 10 µM,[2]; [18],-9%
same,Quadrant (FIG. 5b),"[3]; primary HTS, 10 μM",Q4
same,LPS % cell toxicity,primary rat microglia [4]; [19],0%
same,Fibrin % cell toxicity,primary rat microglia [5]; [20],0%
CCCCCCCCCCCCCCCC[N+](C)(C)C [Cetrimonium],inhibition at 10 µM,[1]; [6],114%
same,inhibition at 10 µM,[2]; [11],132%
same,Quadrant (FIG. 5b),[3]; [8],Q2
same,LPS % cell toxicity,primary rat microglia [4]; [9],12%
same,Fibrin % cell toxicity,primary rat microglia [5]; [10],28%
CN1C(=O)CC(C)(c2ccccc2)C1=O (stereo not shown) [Methsuximide],inhibition at 10 µM,[1]; [6],-39%
same,inhibition at 10 µM,[2]; [11],19%
same,Quadrant (FIG. 5b),[3]; [8],Q4
same,LPS % cell toxicity,primary rat microglia [4]; [9],0%
same,Fibrin % cell toxicity,primary rat microglia [5]; [10],0%
O=C(c1ccccc1)c1ccc2n1CCC2C(=O)O (stereo not shown) [Ketorolac],inhibition at 10 µM,[1]; [12],15%
same,inhibition at 10 µM,[2]; [13],26%
same,Quadrant (FIG. 5b),[3]; [8],Q4
same,LPS % cell toxicity,primary rat microglia [4]; [14],0%
same,Fibrin % cell toxicity,primary rat microglia [5]; [15],0%
